Data from US7615361B2, “Toxicity screening methods” (Ceetox, Inc., priority 2006, dated 2009).
Like-named read-outs stand apart in the source and are kept apart here.

Columns and labels:
H4IIE cells [1] = test: Membrane lipid peroxidation (8-isoprostane ELISA); type: cell-based, rat
Description: (§1) One test compound (Compound A) was received as dry powder and evaluated for potential cytotoxicity in a battery of in vitro assays. The compound was tested using both rat cardiomyocytes (CM) from rat neonates and a rat hepatoma (H4IIE) cell line. […] Camptothecin and rotenone were included as positive control compounds. The cell supernatant or the cells themselves were harvested for biochemical analysis. General cytotoxicity was evaluated by monitoring membrane integrity, mitochondrial function, cell proliferation, oxidative stress, and apoptosis. In addition, interaction with P-glycoprotein (PgP) on H4IIE cells and solubility of the test compound were also assessed. The means of each exposure group (n=3-7) were calculated for each assay performed. Intra assay variation well-to-well was typically less than 10% with plate to plate variation typically less than 20%.
(§2) Experimental Protocol: The test compound was provided and stored at 4° C. until needed. Dosing solutions were prepared in complete culture medium. The rat hepatoma (H4IIE) cell line was used as the test system.

Intracellular ATP levels [2] = type: cell-based, rat; conditions: rat
Description: (§3) One test compound (Compound A) was received as dry powder and evaluated for potential cytotoxicity in a battery of in vitro assays. The compound was tested using both rat cardiomyocytes (CM) from rat neonates and a rat hepatoma (H4IIE) cell line. […] The cell supernatant or the cells themselves were harvested for biochemical analysis. General cytotoxicity was evaluated by monitoring membrane integrity, mitochondrial function, cell proliferation, oxidative stress, and apoptosis. In addition, interaction with P-glycoprotein (PgP) on H4IIE cells and solubility of the test compound were also assessed. The means of each exposure group (n=3-7) were calculated for each assay performed.
as §2
(§4) Intracellular ATP Levels: Cellular Adenosine triphosphate (ATP) was determined with an assay based on a reaction between ATP+D-luciferin+oxygen catalyzed by luciferase to yield Oxyluciferin+AMP+PPi+CO2+light. The emitted light is proportional to the amount of ATP present. […] In addition, a unique cell lysis reagent inhibits endogenous ATPases and therefore stabilizes cellular ATP by preventing its degradation to ADP. ATP is present in all-living cells and declines rapidly upon cell death. In addition, this assay in combination with the MTT assay provides an indicator of mitochondrial activity and energy status of the cell.
(§5) Plates were analyzed immediately or stored at −20° C. until needed. On the day of analysis, the plates were thawed and calibration curve prepared with ATP in the same liquid matrix as samples. ATP was quantified by adding ATP substrate solution and then reading luminescence on a Packard Fusion Luminescence or equivalent plate reader.
(§6) Intracellular ATP Levels: ATP levels in treated cells could be determined by using the regression coefficients obtained from the linear regression analysis of the calibration curve. Thus, values could be expressed as pmoles ATP/million cells. Background corrected luminescence was used to determine percent change relative to controls by dividing treated values by control values and multiplying by 100.

[3] = Intracellular total glutathione (GSH); type: cell-based, rat; conditions: rat
Description: as §3, §2

[4] = MemTox membrane leakage (AK / α-GST); type: cell-based, rat
Description: as §3
(§7) Membrane Leakage (α-Glutathione S-transferase and/or Adenylate Kinase): The presence of Adenylate Kinase (AK) or α-Glutathione S-transferase (α-GST), both enzyme leakage markers, was measured in the culture medium using an activity assay for Adenylate Kinase and/or an ELISA assay for α-GST. At the end of the exposure period, the medium covering the cells in each well was removed and placed into new 96-well plates with appropriate labeling. […] Luminescence (AK) values were measured with a Packard Fusion or equivalent plate reader, and absorbance (α-GST) values were measured with a Packard SpectraCount™ or equivalent reader at 450 nm and reference absorbance at 650 nm.
(§8) Membrane Leakage (α-Glutathione S-transferase and/or Adenylate Kinase): Leakage of Adenylate Kinase or α-GST from the cell into the culture medium was determined by collecting the culture medium at the end of the exposure period. Thus, the values measured represent total enzyme leakage lost over the exposure period. The control for 100% dead or maximum enzyme release was based on cells treated with 1 mM digitonin at the time of dosing. Percent dead cells relative to digitonin treated cells was determined and then subtracted from 100% to yield the percent live cells.

[5] = MemTox membrane leakage (AK / α-GST); type: cell-based, rat; conditions: rat
Description: as §3, §2, §7, §8

P-glycoprotein (PgP) = P-glycoprotein (PgP) binding: MTT with and without cyclosporin A; type: cell-based, rat; conditions: for % Difference: 1-20% low, 20-50% moderate, 50-100% high PgP interaction
Description: Several antiviral drugs are substrates for P-glycoprotein transporter (PgP).
P-glycoprotein (PgP) transport proteins are expressed in the bile canalicular membrane of normal liver. However, in neoplastic cells it is not uncommon to have expression of this transporter system in the plasma membrane. […] The existence of these transporters was evaluated with the Calcein-AM assay and with known substrates of PgP.

[6] = Intracellular total glutathione (GSH); type: cell-based, rat; conditions: rat; remark: listed apart in the source
Description: as §3

Intracellular ATP levels [7] = type: cell-based, rat
Description: as §3, §4, §5, §6

rat cardiomyocytes [8] = test: Membrane lipid peroxidation (8-isoprostane ELISA); type: cell-based
Description: as §1

rat cardiomyocytes [9] = test: Caspase 3 activity (apoptosis); type: cell-based; conditions: rat, 24 h
Description: as §3
(§9) Caspase 3 Procedure: Caspase 3 activity was determined using a caspase substrate (DEVD, Asp-Glu-Val-Asp) labeled with a fluorescent molecule, 7-Amino4-methylcoumarin (AMC). Caspase 3 cleaves the tetrapeptide between D and AMC, thus releasing the fluorogenic […] AMC. Following the test article exposure to cells in 96-well plates, medium was aspirated from plates and PBS added to each well. Plates were stored at −80° C. to lyse cells and store samples until further analysis. On the day of analysis, plates were removed from freezer and thawed. Caspase buffer with fluorescent substrate was added to each well and incubated at room temperature for 1 hr. AMC release was measured in a spectrofluorometer at an excitation wavelength of 360 nm and an emission wavelength of 460 nm. Values are expressed as relative fluorescent units (RFU).
(§10) Caspase Activity: After sample plates were completely thawed, the caspase substrate buffer mix was added to each plate. Plates were incubated at room temperature for 1hr, shielded from light. Plates were read using a in a spectrofluorometer at an excitation wavelength of 360 nm and an emission wavelength of 460 nm. Values were expressed as relative fluorescent units (RFU).
(§11) The key to the maximal response data can be found below Table 2.

H4IIE cells [10] = test: Caspase 3 activity (apoptosis); type: cell-based, rat; conditions: H4IIE, 24 HR
Description: as §3, §2, §9, §10, §11

[11] = H4IIE 24 HR, MTT, 50 μM, with cyclosporin A
[12] = H4IIE 24 HR, MTT, 50 μM, without CSA

SMILES | Membrane Lipid Peroxidation (H4IIE cells [1]; rat, 24 h) | CC50 at 24 h (Intracellular ATP levels [2]; ATP TC50) [µM] | CC50 at 24 h ([3]; Total GSH TC50) [µM] | CC50 at 24 h ([4]; rat) [µM] | CC50 at 24 h ([5]; MemTox TC50) [µM] | % Control (Compound + CSA) (P-glycoprotein (PgP); [11]) [%] | % Control (Compound) (P-glycoprotein (PgP); [12]) [%] | CC50 at 24 h [6] [µM] | CC50 at 24 h (Intracellular ATP levels [7]; rat) [µM] | Membrane Lipid Peroxidation (rat cardiomyocytes [8]; rat, 24 h) | % Difference (P-glycoprotein (PgP); H4IIE 24 HR) [%] | further results
Nc1nc(NC2CC2)c2ncn([C@H]3C=C[C@@H](CO)C3)c2n1 [ABACAVIR, abacavir] | 0 | 154 | 213 | > 300 | > 300 | 104.8 | 97.6 | > 300 | 165 |  |  | 
COc1cccc2c1C(=O)c1c(O)c3c(c(O)c1C2=O)C[C@@](O)(C(=O)CO)C[C@@H]3O[C@H]1C[C@H](N)[C@H](O)[C@H](C)O1 [ADRIAMYCIN, Adriamycin] | 0 |  | 28 | 7 |  | 0.0 | 8.0 | 1 | 6 | 0 | 76.9 | CC50 at 1 h ([4]; rat): > 300 µM; CC50 at 3 h ([4]; rat): > 300 µM; CC50 at 6 h ([4]; rat): 40 µM; Membrane Lipid Peroxidation (rat cardiomyocytes [8]; rat, 1 h): 0; Membrane Lipid Peroxidation (rat cardiomyocytes [8]; rat, 3 h): 0; Membrane Lipid Peroxidation (rat cardiomyocytes [8]; rat, 6 h): 0; % Control (Compound + CSA) (P-glycoprotein (PgP); H4IIE 24 HR, MTT, 50 μM, with cyclosporin A, listed as DOXORUBICIN): 13.7%; % Control (Compound) (P-glycoprotein (PgP); H4IIE 24 HR, MTT, 50 μM, without CSA, listed as DOXORUBICIN): 59.3%; CC50 at 1 h [6]: > 300 µM; CC50 at 3 h [6]: 61 µM; CC50 at 6 h [6]: 23 µM; CC50 at 1 h (Intracellular ATP levels [7]; rat): > 300 µM; CC50 at 3 h (Intracellular ATP levels [7]; rat): 62 µM; CC50 at 6 h (Intracellular ATP levels [7]; rat): 29 µM
COc1cccc2c1C(=O)c1c(O)c3c(c(O)c1C2=O)C[C@@](O)(C(C)=O)C[C@@H]3O[C@H]1C[C@H](N)[C@H](O)[C@H](C)O1 [DAUNORUBICIN, daunorubicin] | 0 |  |  | 4 |  |  |  | < 1 | 9 | 0 |  | CC50 at 24 h (Intracellular ATP levels [2]): 7 µM; CC50 at 24 h [3]: 16 µM; CC50 at 24 h [5]: 41 µM; % Control (Compound + CSA) (P-glycoprotein (PgP)): 5.5%; % Control (Compound) (P-glycoprotein (PgP)): 9.3%
CC(C)Nc1cccnc1N1CCN(C(=O)c2cc3cc(NS(C)(=O)=O)ccc3[nH]2)CC1 [DELAVIRDINE, delavirdine] |  | 257 | 96 | 239 | > 300 | 62.3 | 89.8 | > 300 | 166 | 0 | 30.7 | Caspase 3 Activity (Index/Dose): Dose (rat cardiomyocytes [9]): 100
O=C1Nc2ccc(Cl)cc2[C@@](C#CC2CC2)(C(F)(F)F)O1 [EFAVIRENZ, efavirenz] | 0 | 162 | 170 | 69 | 181 | 70.1 | 89.0 | 83 | 75 |  | 21.3 | 
CC(=O)[C@]1(O)Cc2c(O)c3c(c(O)c2[C@@H](O[C@H]2C[C@H](N)[C@H](O)[C@H](C)O2)C1)C(=O)c1ccccc1C3=O [IDARUBICIN, idarubicin] | 0 | 2 | 4 | < 1 | 30 | 0.0 | 0.8 | < 1 | 2 | 0 |  | 
O=C1c2c(O)ccc(O)c2C(=O)c2c(NCCNCCO)ccc(NCCNCCO)c21 [MITOXANTRONE, mitoxantrone] | 0 | 5 | 247 | 2 | > 300 | 10.4 | 69.9 | < 1 | 2 | 0 | 85.1 | 
COc1cccc2c1C(=O)c1c(O)c3c(c(O)c1C2=O)C[C@@](O)(C(=O)CO)C[C@@H]3O[C@H]1C[C@H](N)[C@H](O[C@@H]2CCCCO2)[C@H](C)O1 [PIRARUBICIN, pirarubicin] |  |  |  |  |  | 33.6 | 51.9 |  |  |  | 35.2 | Caspase 3 Activity (Index/Dose): Index (H4IIE cells [10]): 8 (1400-1600 = 8); Caspase 3 Activity (Index/Dose): Dose (H4IIE cells [10]; exposure concentration that produced the response (μM series)): 10 (1800-2000 = 10); Membrane Lipid Peroxidation (H4IIE cells [1]; H4IIE, 24 HR): 0; CC50 at 24 h (Intracellular ATP levels [2]; H4IIE rat hepatoma cells, H4IIE, 24 HR exposure, read-out: ATP TC50): 8 µM; CC50 at 24 h ([3]; H4IIE rat hepatoma cells, H4IIE, 24 HR, read-out: Total GSH TC50): 17 µM; CC50 at 24 h ([4]; neonatal rat cardiomyocytes, rat cardiomyocytes (CM), 24 HR exposure, read-out: MemTox TC50): 6 µM; Membrane Lipid Peroxidation (rat cardiomyocytes [8]; CM, 24 HR): 0; CC50 at 24 h ([5]; H4IIE rat hepatoma cells, H4IIE, 24 HR exposure, read-out: MemTox TC50): 50 µM; CC50 at 24 h ([6]; neonatal rat cardiomyocytes, CM, 24 HR, read-out: Total GSH TC50): 6 µM; CC50 at 24 h (Intracellular ATP levels [7]; neonatal rat cardiomyocytes, rat cardiomyocytes (CM), 24 HR exposure, read-out: ATP TC50): 7 µM
C=C(C)[C@H]1Cc2c(ccc3c2O[C@@H]2COc4cc(OC)c(OC)cc4[C@@H]2C3=O)O1 [ROTENONE, Rotenone] |  |  |  |  |  | 0.0 | 0.0 |  |  |  |  | Membrane Lipid Peroxidation (H4IIE cells [1]; H4IIE, 24 HR): 2 (2 = Concentration related increase with maximum values ≧15 pg/mL); CC50 at 24 h (Intracellular ATP levels [2]; H4IIE, 24 HR exposure, read-out: ATP TC50): 0.04 µM; CC50 at 24 h ([3]; H4IIE, 24 HR, read-out: Total GSH TC50): 0.05 µM; CC50 at 24 h ([4]; rat cardiomyocytes (CM), 24 HR exposure, read-out: MemTox TC50): 56 µM; Membrane Lipid Peroxidation (rat cardiomyocytes [8]; CM, 24 HR): 3 (3 = Concentration related increase with a maximum value ≧30 pg/mL); CC50 at 24 h ([5]; H4IIE, 24 HR exposure, read-out: MemTox TC50): 100 µM; CC50 at 24 h ([6]; CM, 24 HR, read-out: Total GSH TC50): 7 µM; CC50 at 24 h (Intracellular ATP levels [7]; rat cardiomyocytes (CM), 24 HR exposure, read-out: ATP TC50): 8 µM
